pKi: −log10 of the molar value. Where two headings read alike, the source gives them in different places.

The pKi is the Ki on a negative log10 scale, so that one unit is a factor of ten.

For experiment [1], the target named is WDR5 (Homo sapiens (Human), UniProt P61964). Description: TR-FRET binding assay (displacement of 10mer-Thr-FAM probe from WDR5). The note with it: read-out: Ki for Inhibition of WDR5 by TR-FRET assay. (Time-resolved FRET reads energy transfer from a long-lived donor to a nearby acceptor.)
Experiment [2] concerns MV4:11 human cancer cell lines. Description: Anti-proliferative activity, CellTiter-Glo viability assay, 7 day protocol. Format: cell-based. The note with it: Homo sapiens, MV4-11, 168 h, MV4:11 cells, 7 day incubation, read-out: GI50 on cellular proliferation of MV4:11 human cancer cell lines. Put shortly: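 Luminescent CellTiter-Glo readout after 7-day compound exposure of MV4:11 cells plated at 3600 cells/ml (final DMSO 0.1%). GI50 derived from three biological × three technical replicates, reported as mean ± S.E.M.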

[3] abbreviates: TR-FRET, 10mer-Thr-FAM probe, WDR5-His tag 2 nM, pH 7.0.

With `CCn1cc(-c2cc(Cn3ccoc3=N)cc(C(=O)N[C@H](c3ccc(Cl)c(Cl)c3)C3CC3)c2)c(C(F)(F)F)n1` [Example 280, (S)—N-(Cyclopropyl(3,4-dichlorophenyl)methyl)-3-(1-ethyl-3-(trifluoromethyl)-1H-pyrazol-4-yl)-5-((2-iminooxazol-3(2H)-yl)methyl)benzamide], the pKi in experiment [1] (setting [3]) was above 10.00. Moreover, the GI50 in experiment [2] was below 100 nM.
For `CCn1cc(-c2cc(CN3CCOC3=N)cc(C(=O)N[C@H](c3ccc(Cl)c(Cl)c3)C3CC3)c2)c(C(F)(F)F)n1` [Example 281, (S)—N-(Cyclopropyl(3,4-dichlorophenyl)methyl)-3-(1-ethyl-3-(trifluoromethyl)-1H-pyrazol-4-yl)-5-((2-iminooxazolidin-3-yl)methyl)benzamide], the pKi in experiment [1] (setting [3]) is above 10.00. For the same compound, the GI50 in experiment [2] was below 100 nM.
As for `Cc1cc([C@@H](NC(=O)c2cc(CN3CCOC3=N)cc(-c3ccc(F)cc3C#N)c2)C2CC2)ccc1F` [Example 282, (S)-2′-Cyano-N-(cyclopropyl(4-fluoro-3-methylphenyl)methyl)-4′-fluoro-5-((2-iminooxazolidin-3-yl)methyl)-[1,1′-biphenyl]-3-carboxamide], the pKi in experiment [1] (setting [3]) is 9.68. In experiment [2], the GI50 is 200 nM.
For `Cc1cc([C@@H](NC(=O)c2cc(CN3CCOC3=N)cc(-c3ccc(F)cc3C(F)(F)F)c2F)C2CC2)ccc1F` [Example 283, (S)—N-(Cyclopropyl(4-fluoro-3-methylphenyl)methyl)-2,4′-difluoro-5-((2-iminooxazolidin-3-yl)methyl)-2′-(trifluoromethyl)-[1,1′-biphenyl]-3-carboxamide] the same measures were 10.70 and 120 nM.
`N=C1OCCN1Cc1cc(C(=O)N[C@H](c2ccc(Cl)c(Cl)c2)C2CC2)cc(-c2ncc(F)cc2C(F)(F)F)c1` [Example 284, (S)—N-(Cyclopropyl(3,4-dichlorophenyl)methyl)-3-(5-fluoro-3-(trifluoromethyl)pyridin-2-yl)-5-((2-iminooxazolidin-3-yl)methyl)benzamide]: the pKi in experiment [1] (setting [3]) was 9.96. Also, the GI50 in experiment [2] is 270 nM.
For `Cc1cc([C@@H](NC(=O)c2cc(CN3CCOC3=N)cc(-c3ccc(F)cc3C(F)(F)F)c2)C2CC2)ccc1F` [Example 285, (S)—N-(Cyclopropyl(4-fluoro-3-methylphenyl)methyl)-4′-fluoro-5-((2-iminooxazolidin-3-yl)methyl)-2′-(trifluoromethyl)-[1,1′-biphenyl]-3-carboxamide], in that order: above 10.00 and below 100 nM.
Regarding `CC(C)n1cc(-c2cc(CN3CCOC3=N)cc(C(=O)N[C@H](c3ccc(F)c(F)c3)C3CC3)c2)c(C(F)(F)F)n1` [Example 286, (S)—N-(Cyclopropyl(3,4difluorophenyl)methyl)-3-((2-iminooxazolidin-3-yl)methyl)-5-(1-isopropyl-3-(trifluoromethyl)-1H-pyrazol-4-yl)benzamide], the pKi in experiment [1] (setting [3]) is above 10.00. Also, the GI50 in experiment [2] was below 100 nM.
In the case of `Cc1cc([C@@H](NC(=O)c2cc(CN3CCOC3=N)cc(-c3cc(C(F)(F)F)nn3C)c2)C2CC2)ccc1F` [Example 287, (S)—N-(Cyclopropyl(4-fluoro-3-methylphenyl)methyl)-3-((2-iminooxazolidin-3-yl)methyl)-5-(1-methyl-3-(trifluoromethyl)-1H-pyrazol-5-yl)benzamide], the pKi in experiment [1] is above 10.00. The GI50 in experiment [2] is 100 nM.
On to `Cc1cc([C@@H](NC(=O)c2cc(Cn3ccoc3=N)cc(-c3cn(C(C)C)nc3C(F)(F)F)c2)C2CC2)ccc1F` [Example 291, (S)—N-(Cyclopropyl(4-fluoro-3-methylphenyl)methyl)-3-((2-iminooxazol-3(2H)-yl)methyl)-5-(1-isopropyl-3-(trifluromethyl)-1H-pyrazol-4-yl)benzamide], for which the pKi in experiment [1] (setting [3]) is above 10.00. Also, the GI50 in experiment [2] is below 100 nM.
Regarding `CCn1cc(-c2cc(Cn3ccoc3=N)cc(C(=O)NCc3ccc(F)c(C)c3)c2)c(C(F)(F)F)n1` [Example 294, 3-(1-Ethyl-3-(trifluoromethyl)-1H-pyrazol-4-yl)-N-(4-fluoro-3-methylbenzyl)-5-((2-iminooxazol-3(2H)-yl)methyl)benzamide], the pKi in experiment [1] was above 10.00. Further, in experiment [2], the GI50 is below 100 nM.
Regarding `CCn1cc(-c2cc(CN3CCOC3=N)cc(C(=O)NCc3ccc(F)c(C)c3)c2)c(C(F)(F)F)n1` [Example 295, 3-(1-Ethyl-3-(trifluoromethyl)-1H-pyrazol-4-yl)-N-(4-fluoro-3-methylbenzyl)-5-((2-iminooxazolidin-3-yl)methyl)benzamide], the pKi in experiment [1] was above 10.00. Also, the GI50 in experiment [2] is below 100 nM.
Take `CCn1cc(-c2cc(Cn3ccoc3=N)cc(C(=O)N[C@H](c3ccc(F)c(Cl)c3)C3CC3)c2)c(C(F)(F)F)n1` [Example 298, (S)—N-((3-Chloro-4-fluorophenyl)(cyclopropyl)methyl)-3-(1-ethyl-3-(trifluoromethyl)-1H-pyrazol-4-yl)-5-((2-iminooxazol-3(2H)-yl)methyl)benzamide]: the pKi in experiment [1] (setting [3]) is above 10.00. Moreover, the GI50 in experiment [2] was below 100 nM.
Turning to `Cc1cc([C@@H](NC(=O)c2cc(Cn3ccoc3=N)cc(-c3cn(C)nc3C(F)(F)F)c2)C2CC2)ncc1F` [Example 299, (S)—N-(Cyclopropyl(5-fluoro-4-methylpyridin-2-yl)methyl)-3-((2-iminooxazol-3(2H)-yl)methyl)-5-(1-methyl-3-(trifluoromethyl)-1H-pyrazol-4-yl)benzamide], the negative logarithm of the Ki (pKi) in experiment [1] (setting [3]) is above 10.00. Moreover, the GI50 in experiment [2] is below 100 nM.
For `Cc1cc([C@@H](NC(=O)c2cc(CN3CCOC3=N)cc(-c3cn(C)nc3C(F)(F)F)c2)C2CC2)ncc1F` [Example 300, (S)—N-(Cyclopropyl(5-fluoro-4-methylpyridin-2-yl)methyl)-3-((2-iminooxazolidin-3-yl)methyl)-5-(1-methyl-3-(trifluoromethyl)-1H-pyrazol-4-yl)benzamide], the pKi in experiment [1] (setting [3]) is above 10.00. Moreover, the GI50 in experiment [2] was below 100 nM.
With `N=C1OCCN1Cc1cc(C(=O)N[C@H](c2ccc(Cl)c(F)c2)C2CC2)cc(-c2ccc(F)cc2Cl)c1` [Example 301, (S)-2′-Chloro-N-((4-chloro-3-fluorophenyl)(cyclopropyl)methyl)-4′-fluoro-5-((2-iminooxazolidin-3-yl)methyl)-[1,1′-biphenyl]-3-carboxamide], in experiment [1] (setting [3]), the pKi is above 10.00. The GI50 in experiment [2] is 270 nM.
For `CCOc1c(C(=O)N[C@@H](C)c2ccc(F)c(C)c2)cc(CN2CCOC2=N)cc1-c1cn(C)nc1C(F)(F)F` [Example 302, (S)-2-Ethoxy-N-(1-(4-fluoro-3-methylphenyl)ethyl)-5-((2-iminooxazolidin-3-yl)methyl)-3-(1-methyl-3-(trifluoromethyl)-1H-pyrazol-4-yl)benzamide], the pKi in experiment [1] (setting [3]) is above 10.00. In addition, the GI50 in experiment [2] was below 100 nM.
For the compound `CCOc1c(C(=O)N[C@H](c2ccc(F)c(C)c2)C2CC2)cc(CN2CCOC2=N)cc1-c1cn(C)nc1C(F)(F)F` [Example 303, (S)—N-(Cyclopropyl(4-fluoro-3-methylphenyl)methyl)-2-ethoxy-5-((2-iminooxazolidin-3-yl)methyl)-3-(1-methyl-3-(trifluoromethyl)-1H-pyrazol-4-yl)benzamide], the pKi in experiment [1] (setting [3]) is above 10.00. The GI50 in experiment [2] is below 100 nM.

The values above are taken from US10844044B2 (Vanderbilt University, priority 2018, dated 2020).
